Consider 24 compounds from ChEMBL document CHEMBL1909046, “DrugMatrix in vitro pharmacology data”.

In data set [1] the target is Sodium-dependent noradrenaline transporter (Homo sapiens, UniProt P23975). The data set is described as follows: DRUGMATRIX: Norepinephrine Transporter radioligand binding (ligand: [125I] RTI-55). It counts as cell membranes, MDCK, Membrane. To be noted: mdck; Not Active = under 50% inhibition at 10 µM.
For another data set, the target named is Estrogen receptor beta (Homo sapiens, UniProt Q92731). The following applies: sf9. Also: in other assays of this panel Not Active means under 50% inhibition at 10 µM.
Estrogen receptor beta, sequence (Q92731 whole entry): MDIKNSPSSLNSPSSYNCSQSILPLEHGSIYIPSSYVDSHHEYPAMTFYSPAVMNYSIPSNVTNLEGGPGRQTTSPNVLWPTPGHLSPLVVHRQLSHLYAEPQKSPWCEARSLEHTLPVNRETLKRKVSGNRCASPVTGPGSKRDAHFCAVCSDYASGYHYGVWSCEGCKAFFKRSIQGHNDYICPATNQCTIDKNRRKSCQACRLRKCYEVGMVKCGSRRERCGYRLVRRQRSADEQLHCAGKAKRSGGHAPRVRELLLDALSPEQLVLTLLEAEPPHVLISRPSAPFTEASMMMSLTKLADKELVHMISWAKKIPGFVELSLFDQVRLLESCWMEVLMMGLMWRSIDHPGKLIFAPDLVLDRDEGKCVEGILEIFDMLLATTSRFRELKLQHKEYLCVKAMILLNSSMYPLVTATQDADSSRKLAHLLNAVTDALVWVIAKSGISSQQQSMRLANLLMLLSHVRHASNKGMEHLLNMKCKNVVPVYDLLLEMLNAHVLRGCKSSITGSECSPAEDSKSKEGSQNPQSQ
The target in the next data set is D(3) dopamine receptor (Homo sapiens, UniProt P35462). The data set is described as follows: DRUGMATRIX: Dopamine D3 radioligand binding (ligand: [3H] Spiperone). The format is cell membranes, CHO, Membrane. The following applies: cho.
D(3) dopamine receptor, sequence (P35462 whole entry): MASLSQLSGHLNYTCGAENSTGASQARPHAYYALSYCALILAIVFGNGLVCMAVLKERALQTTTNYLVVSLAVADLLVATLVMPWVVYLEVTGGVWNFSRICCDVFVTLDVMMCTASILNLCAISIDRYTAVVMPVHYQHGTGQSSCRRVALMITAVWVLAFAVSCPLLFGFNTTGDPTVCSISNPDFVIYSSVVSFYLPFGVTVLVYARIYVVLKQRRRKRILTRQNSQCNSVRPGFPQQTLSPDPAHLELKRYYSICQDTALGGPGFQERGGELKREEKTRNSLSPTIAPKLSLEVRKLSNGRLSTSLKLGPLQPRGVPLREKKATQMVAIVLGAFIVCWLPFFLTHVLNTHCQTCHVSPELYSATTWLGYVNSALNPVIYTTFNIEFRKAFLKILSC
In a further data set the target is Cytochrome P450 2C9 (Homo sapiens, UniProt P11712). To be noted: bti-tn-5b1-4. Also: in other assays of this panel Not Active means under 50% inhibition at 10 µM.
Cytochrome P450 2C9, sequence (P11712 whole entry): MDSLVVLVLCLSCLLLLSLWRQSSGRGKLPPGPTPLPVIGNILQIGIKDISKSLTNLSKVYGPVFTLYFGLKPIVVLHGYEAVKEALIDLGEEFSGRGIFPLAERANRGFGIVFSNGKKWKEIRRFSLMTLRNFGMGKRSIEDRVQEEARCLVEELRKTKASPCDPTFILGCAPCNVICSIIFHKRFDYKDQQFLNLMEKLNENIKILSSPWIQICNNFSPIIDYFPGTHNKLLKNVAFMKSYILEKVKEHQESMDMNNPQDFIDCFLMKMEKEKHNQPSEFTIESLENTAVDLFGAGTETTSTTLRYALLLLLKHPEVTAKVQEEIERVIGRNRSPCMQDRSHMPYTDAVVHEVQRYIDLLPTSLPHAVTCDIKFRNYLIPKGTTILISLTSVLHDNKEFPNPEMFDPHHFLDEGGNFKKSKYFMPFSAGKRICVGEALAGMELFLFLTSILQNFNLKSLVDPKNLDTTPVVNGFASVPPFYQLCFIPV
Data set [2] concerns the target Kappa-type opioid receptor (Homo sapiens, UniProt P41145). Put plainly: DRUGMATRIX: Opiate kappa (OP2, KOP) radioligand binding (ligand: [3H] Diprenorphine). The format is cell membranes, HEK293, Membrane. The following applies: Not Active = under 50% inhibition at 10 µM.
In another data set the target is T1, Estrogen receptor (Homo sapiens, UniProt P03372).
T1 sequence (P03372 whole entry): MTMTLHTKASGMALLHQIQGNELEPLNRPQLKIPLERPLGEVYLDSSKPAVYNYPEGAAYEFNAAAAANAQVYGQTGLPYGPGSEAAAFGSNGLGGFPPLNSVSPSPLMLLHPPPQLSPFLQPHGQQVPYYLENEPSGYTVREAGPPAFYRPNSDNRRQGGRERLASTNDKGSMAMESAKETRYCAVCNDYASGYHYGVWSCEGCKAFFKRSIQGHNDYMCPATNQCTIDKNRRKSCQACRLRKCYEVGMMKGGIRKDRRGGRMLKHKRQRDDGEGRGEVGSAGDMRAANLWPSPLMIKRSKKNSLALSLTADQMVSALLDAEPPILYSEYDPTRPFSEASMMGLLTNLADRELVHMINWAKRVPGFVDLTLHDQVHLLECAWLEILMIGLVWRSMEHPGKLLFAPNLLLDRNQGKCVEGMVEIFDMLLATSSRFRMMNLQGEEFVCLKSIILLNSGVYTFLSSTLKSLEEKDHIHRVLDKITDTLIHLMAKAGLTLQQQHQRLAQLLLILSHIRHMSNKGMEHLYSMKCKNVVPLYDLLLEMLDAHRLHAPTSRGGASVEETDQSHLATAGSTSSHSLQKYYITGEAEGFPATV
To be noted: sf9.

Sodium-dependent noradrenaline transporter, sequence (P23975 whole entry): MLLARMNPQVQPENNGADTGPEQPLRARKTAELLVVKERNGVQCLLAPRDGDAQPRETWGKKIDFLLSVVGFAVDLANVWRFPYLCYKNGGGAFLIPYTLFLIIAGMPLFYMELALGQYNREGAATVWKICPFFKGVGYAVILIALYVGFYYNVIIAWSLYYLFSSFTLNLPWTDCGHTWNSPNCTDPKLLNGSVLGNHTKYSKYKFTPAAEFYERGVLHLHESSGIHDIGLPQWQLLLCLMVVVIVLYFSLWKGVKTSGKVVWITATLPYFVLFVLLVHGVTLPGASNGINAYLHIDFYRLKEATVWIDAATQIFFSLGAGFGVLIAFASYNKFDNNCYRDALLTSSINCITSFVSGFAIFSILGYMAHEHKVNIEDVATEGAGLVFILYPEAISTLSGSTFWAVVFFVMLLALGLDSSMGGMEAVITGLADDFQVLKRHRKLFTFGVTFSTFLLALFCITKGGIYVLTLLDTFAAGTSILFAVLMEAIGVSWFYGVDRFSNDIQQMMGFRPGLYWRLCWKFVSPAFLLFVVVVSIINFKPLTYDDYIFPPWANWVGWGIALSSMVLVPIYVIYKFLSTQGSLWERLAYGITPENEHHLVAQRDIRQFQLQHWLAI
Kappa-type opioid receptor, sequence (P41145 whole entry): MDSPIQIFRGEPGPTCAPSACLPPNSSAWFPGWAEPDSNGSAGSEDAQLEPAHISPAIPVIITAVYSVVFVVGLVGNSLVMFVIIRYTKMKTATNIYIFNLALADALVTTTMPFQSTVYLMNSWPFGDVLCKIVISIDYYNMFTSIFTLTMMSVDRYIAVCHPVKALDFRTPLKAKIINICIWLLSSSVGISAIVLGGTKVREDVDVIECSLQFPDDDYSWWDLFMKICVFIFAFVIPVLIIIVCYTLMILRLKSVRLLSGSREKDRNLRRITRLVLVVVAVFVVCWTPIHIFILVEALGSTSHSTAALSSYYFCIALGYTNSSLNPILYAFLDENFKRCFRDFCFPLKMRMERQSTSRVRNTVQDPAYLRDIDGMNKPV

The IC50 is the midpoint of a concentration-inhibition curve. The Ki is a dissociation constant, usually derived from enzyme kinetics or from competition with a known ligand. For `C#C[C@]1(O)CC[C@H]2[C@@H]3[C@H](C)CC4=C(CCC(=O)C4)[C@H]3CC[C@@]21C` [TIBOLONE], the IC50 result (in data set [1]; against Estrogen receptor beta; on D(3) dopamine receptor; against Cytochrome P450 2C9; in data set [2] (hek293)) was “Not Active” each time. In addition, the inhibitory constant (Ki) entry at Cytochrome P450 2C9 was “Not Active”.

On to `C[C@]12CCC(=O)C[C@@H]1CC[C@@H]1[C@@H]2CC[C@]2(C)[C@@H](O)CC[C@@H]12` [STANOLONE], for which the IC50 entry (in data set [1]; at Estrogen receptor beta; on D(3) dopamine receptor; against Cytochrome P450 2C9; in data set [2] (hek293)) was “Not Active” throughout. Besides, the inhibition constant Ki result on Cytochrome P450 2C9 is “Not Active”.

In the case of `OC[C@@H](O)[C@@H](O)[C@H](O)[C@H](O)CO` [MANNITOL], the IC50 result (in data set [1]; on D(3) dopamine receptor; against Cytochrome P450 2C9; against Estrogen receptor) was “Not Active” each time. On Cytochrome P450 2C9, the inhibitory constant (Ki) result was “Not Active”.

In the case of `C[N+]1(C)[C@@H]2C[C@@H](OC(=O)[C@H](CO)c3ccccc3)C[C@H]1[C@@H]1O[C@@H]12.[Br-]` [METHSCOPOLAMINE BROMIDE], the IC50 result at D(3) dopamine receptor and at Estrogen receptor was “Not Active” in each case.

Turning to `CC(=O)O[C@]1(C(C)=O)CC[C@H]2[C@@H]3C[C@H](C)C4=CC(=O)CC[C@]4(C)[C@H]3CC[C@@]21C` [MEDROXYPROGESTERONE ACETATE], the IC50 entry (in data set [1]; on D(3) dopamine receptor; at Cytochrome P450 2C9; against Estrogen receptor; in data set [2] (hek293)) was “Not Active” throughout. For the same compound, at Cytochrome P450 2C9, the inhibition constant Ki entry is recorded as “Not Active”.

Consider `Cc1ccnc(NS(=O)(=O)c2ccc(N)cc2)n1` [SULFAMERAZINE], for which the IC50 result (in data set [1]; on D(3) dopamine receptor; against Cytochrome P450 2C9; at Estrogen receptor; in data set [2] (hek293)) was “Not Active” each time. For the same compound, the inhibition constant Ki result on Cytochrome P450 2C9 is “Not Active”.

For the compound `O=C(c1ccccc1)c1ccc2n1CCC2C(=O)O` (centres undefined) [KETOROLAC], the concentration for half-maximal inhibition (IC50) result (in data set [1]; at D(3) dopamine receptor; at Cytochrome P450 2C9; in data set [2] (hek293)) was “Not Active” throughout. Further, the Ki entry on Cytochrome P450 2C9 is listed as “Not Active”.

For `CCC(C)(C)C(=O)O[C@H]1C[C@@H](C)C=C2C=C[C@H](C)[C@H](CC[C@@H]3C[C@@H](O)CC(=O)O3)[C@H]21` [SIMVASTATIN], the half-maximal inhibitory concentration (IC50) result (against Estrogen receptor beta; at D(3) dopamine receptor; at Estrogen receptor; in data set [2] (hek293)) was “Not Active” throughout.

With `O=C1CC[C@@]2(O)[C@H]3Cc4ccc(O)c5c4[C@@]2(CCN3CC2CC2)[C@H]1O5` [NALTREXONE], the IC50 entry (in data set [1]; against Estrogen receptor beta; on D(3) dopamine receptor; against Cytochrome P450 2C9) was “Not Active” in each case. In addition, the Ki entry at Cytochrome P450 2C9 was “Not Active”.

In the case of `CNCCCC12CCC(c3ccccc31)c1ccccc12` [MAPROTILINE], the half-inhibitory concentration (IC50) result (at Estrogen receptor beta; against Estrogen receptor; in data set [2] (hek293)) was “Not Active” throughout.

Consider `C=CCc1ccc2c(c1)OCO2` [SAFROLE], for which the IC50 entry (in data set [1]; against Estrogen receptor beta; at D(3) dopamine receptor; at Cytochrome P450 2C9; in data set [2] (hek293)) was “Not Active” each time. Also, the inhibitory constant (Ki) result on Cytochrome P450 2C9 is recorded as “Not Active”.

With `Cc1cn([C@H]2C=C[C@@H](CO)O2)c(=O)[nH]c1=O` [STAVUDINE], the IC50 entry (in data set [1]; on Estrogen receptor beta; on D(3) dopamine receptor; against Cytochrome P450 2C9; in data set [2] (hek293)) was “Not Active” throughout. The Ki result at Cytochrome P450 2C9 is on record as “Not Active”.

Consider `CC#C[C@]1(O)CC[C@H]2[C@@H]3CCC4=CC(=O)CCC4=C3[C@@H](c3ccc(N(C)C)cc3)C[C@@]21C` [MIFEPRISTONE], for which the concentration for half-maximal inhibition (IC50) entry in data set [1] was “Not Active”; on Estrogen receptor beta it was “Not Active”; at D(3) dopamine receptor, “Not Active”; at Cytochrome P450 2C9, “Not Active”; in data set [2] (read-out: IC50), 20.1 µM. For the same compound, the inhibition constant Ki result on Cytochrome P450 2C9 was “Not Active”; in data set [2], 8.04 µM.

Consider `CCN(CC)N=O` [N-NITROSODIETHYLAMINE], for which the IC50 result (in data set [1]; on D(3) dopamine receptor; against Cytochrome P450 2C9) was “Not Active” each time. Further, the Ki entry at Cytochrome P450 2C9 is recorded as “Not Active”.

Regarding `CC(O)C(=O)O` (centres undefined) [LACTIC ACID], the half-inhibitory concentration (IC50) entry (in data set [1]; on D(3) dopamine receptor; against Cytochrome P450 2C9; against Estrogen receptor; in data set [2] (hek293)) was “Not Active” each time. In addition, at Cytochrome P450 2C9, the Ki result is “Not Active”.

Take `CS(=O)(=O)c1ccc(C2=C(c3ccccc3)C(=O)OC2)cc1` [ROFECOXIB]: the half-maximal inhibitory concentration (IC50) result (in data set [1]; at Estrogen receptor beta; at D(3) dopamine receptor; on Cytochrome P450 2C9; in data set [2] (hek293)) was “Not Active” in each case. At Cytochrome P450 2C9, the Ki entry was “Not Active”.

For `CC(Cl)(Cl)Cl` [TRICHLOROETHANE], the 50% inhibitory concentration (IC50) result (in data set [1]; at D(3) dopamine receptor; against Cytochrome P450 2C9) was “Not Active” each time. For the same compound, on Cytochrome P450 2C9, the Ki result was “Not Active”.

In the case of `O=C(O)c1cc(/N=N/c2ccc(S(=O)(=O)Nc3ccccn3)cc2)ccc1O` [SULFASALAZINE], the IC50 entry (in data set [1]; on Estrogen receptor beta; at D(3) dopamine receptor; on Cytochrome P450 2C9; in data set [2] (hek293)) was “Not Active” each time. Besides, on Cytochrome P450 2C9, the inhibition constant Ki entry is listed as “Not Active”.

Consider `CO[C@@]12[C@H](COC(N)=O)C3=C(C(=O)C(C)=C(N)C3=O)N1C[C@@H]1N[C@@H]12` [MITOMYCIN], for which the 50% inhibitory concentration (IC50) entry (in data set [1]; on Estrogen receptor beta; on D(3) dopamine receptor; on Cytochrome P450 2C9; in data set [2] (hek293)) was “Not Active” throughout. Moreover, the inhibitory constant (Ki) result on Cytochrome P450 2C9 is “Not Active”.

On to `CC1=C(/C=C/C(C)=C/C=C/C(C)=C/C(=O)O)C(C)(C)CCC1` [TRETINOIN], for which the IC50 entry (in data set [1]; at D(3) dopamine receptor; against Cytochrome P450 2C9; against Estrogen receptor; in data set [2] (hek293)) was “Not Active” in each case. The Ki result at Cytochrome P450 2C9 is given as “Not Active”.

Take `CN1C[C@H](CNC(=O)OCc2ccccc2)C[C@@H]2c3cccc4c3c(cn4C)C[C@H]21` [METERGOLINE]: the IC50 result (against Estrogen receptor beta; at Cytochrome P450 2C9; against Estrogen receptor; in data set [2] (hek293)) was “Not Active” throughout. Besides, the Ki result on Cytochrome P450 2C9 is “Not Active”.

As to `Cc1cc2c(s1)Nc1ccccc1N=C2N1CCN(C)CC1` [OLANZAPINE], the half-inhibitory concentration (IC50) result (in data set [1]; on Cytochrome P450 2C9; against Estrogen receptor; in data set [2] (hek293)) was “Not Active” each time. The inhibition constant Ki result on Cytochrome P450 2C9 is “Not Active”.

Turning to `C1CCN2C[C@@H]3C[C@@H](CN4CCCC[C@@H]34)[C@H]2C1` [SPARTEINE], the IC50 result (in data set [1]; against Estrogen receptor beta; on D(3) dopamine receptor) was “Not Active” each time.

With `CO[C@@H]1[C@@H](OC)[C@H](C)[C@@](O)(CC(=O)O)O[C@H]1[C@H](C)[C@H]1O[C@@]2(CC[C@@](C)([C@H]3CC[C@@](C)([C@@H]4O[C@@H]([C@H]5O[C@](C)(O)[C@H](C)C[C@@H]5C)C[C@@H]4O[C@@H]4C[C@H](OC)[C@@H](OC)[C@H](C)O4)O3)O2)C[C@H](O)[C@H]1C.N` [MADURAMICIN], the IC50 entry (in data set [1]; at D(3) dopamine receptor; on Cytochrome P450 2C9; at Estrogen receptor; in data set [2] (hek293)) was “Not Active” in each case. Besides, the Ki entry at Cytochrome P450 2C9 is “Not Active”.
